Literature values as cited in US20080286370A1, “Nanoscale Particles Used as Contrasting Agents in Magnetic Resonance Imaging” (priority 2005, published 2008).

Experiments:
[1] = copper or zinc
[2] = in vivo
[3] = human, in vivo

exchange of gadolinium with endogenic metal ions [1]: less than 1%
eliminated [2]: 75%
patients who suffered from nausea [3]: 8
patients who suffered from vomiting [3]: 5
pseudohypocalcaemia [3]: has not caused pseudohypocalcaemia
systemic osmolality effects [3]: negligible
temperature, headaches, an unwell feeling, skin rash and an unpleasant taste in the mouth [3]: less than 0.15%
total rate of nausea and vomiting [3]: 0.31%
Compound: O=C([O-])CN1CCN(CC(=O)[O-])CCN(CC(=O)O)CCN(CC(=O)[O-])CC1.[Gd+3] [Gd-DOTA, gadoteric acid]
passage through the blood/brain barrier [2]: do not pass through the blood/brain barrier
adverse effect on vital parameters or renal function [3]: absolutely no adverse effect
side-effect rate [3]: 0.84-0.97%
